According to US10358469B2, “Methods and pharmaceutical compositions for the treatment of cancer” (INSERM (INSTITUT NATIONAL DE LA SANTÉ ET DE LA RECHERCHE …, priority 2014, dated 2019):

Assays:
A549 cells = assay: Lactate dehydrogenase (LDH) release, A549 cells; assay type: cell-based, human; details: 10 μM
Procedure: (§1) (A) SeAx or HaCat cells cultured in the absence of 10% FBS were left untreated or treated with 4 μM or 10 μM, respectively, of the Antp-AAC-11-LZ (363-399) peptide for the indicated durations. Cells were then analyzed by flow cytometry for PI staining. The results represent the mean number of PI-positive cells±S.D. from at least three independent experiments. (B) A549 and HaCat cells were plated at a densities of 4.5×10^3 in 96 well plates (100 μL total volume per well) and allowed to attach overnight in a 37° C. incubator (5% CO2). Media was removed from cells and replaced with media containing 10 μM Antp-AAC-11-LZ (363-399) peptide (100 μL total volume per well) peptide and the plates were incubated for the indicated durations. Lactate dehydrogenase (LDH) activity released in the culture medium was then assessed and data expressed as a percentage of the maximal level (Max) of LDH activity determined after total cell lysis±S.D. from at least three independent experiments.
(A) SeAx cultured in the absence of 10% FBS were left untreated or treated with 4 μM of the indicated Antp-AAC-11-LZ peptides for various times. Cells were then analyzed by flow cytometry for PI staining. The results represent the mean number of PI-positive cells±S.D. (B) A549 cells were plated at a densities of 4.5×10^3 in 96 well plates (100 μL total volume per well) and allowed to attach overnight in a 37° C. incubator (5% CO2). Media was removed from cells and replaced with media containing the indicated Antp-AAC-11-LZ peptides at 10 μM (100 μL total volume per well) peptide and the plates were incubated for the indicated durations. Lactate dehydrogenase (LDH) activity released in the culture medium was then assessed and data expressed as a percentage of the maximal level (Max) of LDH activity determined after total cell lysis±S.D.

HaCat cells = assay: Lactate dehydrogenase (LDH) release, HaCat cells; assay type: cell-based; details: 10 μM, FIG. 4B
Procedure: as §1, with “FIG. 4: Antp-AAC-11-LZ (363-399) peptide induced necrotic cell death under low serum conditions. (A)” for “(A)”, “Media was removed from cells and replaced with media containing 10 μM Antp-AAC-11-LZ (363-399) peptide (100 μL total volume per well) peptide and the plates were incubated for the indicated durations.” left out
Cytoplasmic lactate dehydrogenase (LDH) release into the cell culture supernatant occurs upon damage of the plasma membrane, and it is therefore considered a typical hallmark of necrosis. […] LDH activity was measured using the CytoTox 96® assay (Promega) by the reduction of lactate to pyruvate in the presence of NAD^+. […] Visible wavelength absorbance data are collected using a standard 96-well plate reader. […]
Necrosis was further assessed based on lactate dehydrogenase (LDH) activity release in the culture medium. […]

[1] = Toxicity of peptide injection in nude mice; details: i.p. twice per week for 4 weeks
Procedure: Nude mice were injected intraperitoneally twice a week for 4 weeks with normal saline solution or the indicated doses of Antp-AAC-11-LZ (363-399) peptide (n=3-4 mice per group) and were monitored daily for body weight (mean±s.e.m).
Nude mice were injected intraperitoneally twice a week for 4 weeks with normal saline solution or the indicated doses of Antp-AAC-11-LZ (377-399) peptide (n=3-4 mice per group) and were monitored daily for body weight (mean±s.e.m).
We first evaluated the toxicity of the Antp-AAC-11-LZ (363-399) peptide in nude mice that were injected intraperitoneally twice per week for 4 weeks with the Antp-AAC-11-LZ (363-399) peptide or normal saline solution (dose range: 0.8-4.8 mg peptide/kg body weight; n=3-4 mice per group).
We first evaluated the toxicity of the Antp-AAC-11-LZ (377-399) peptide in nude mice that were injected intraperitoneally twice per week for 4 weeks with the Antp-AAC-11-LZ (377-399) peptide or normal saline solution (dose range: 1-6 mg peptide/kg body weight; n=3-4 mice per group).

[2] = tested on: normal cells (HaCat, NCTC and human primary fibroblasts); assay: Cell viability (MTT) of normal cells; assay type: cell-based; details: increasing concentrations, 24 hours, FIG. 1B
[3] = tested on: human triple-negative breast cancer xenograft PDX02; assay: Triple-negative breast cancer patient-derived xenograft PDX02 in nude mice; assay type: in vivo; details: 2.4 mg/kg i.p., 7 daily injections, FIG. 8B
Procedure: Breast cancer fragments were obtained from patients at the time of surgery, with informed written patient consent. After imaging-guided human tumor biopsies had been performed, fragments of 30 to 60 mm^3 were subcutaneously grafted in 6-week-old NMRI-nude mice (Centre-Elevage-Janvier, France), under xylasin (10 mg/kg)/ketamin (100 mg/kg) anesthesia. Mice were maintained in specific pathogen-free animal housing (Institut Universitaire d'Hematologie) and received estrogen (17 mg/mL) diluted in drinking water. Xenografts were characterized and subsequently subcutaneously transplanted from mouse to mouse. […] Two human triple-negative breast cancer (HBC) xenografts models were used in our experiments (PDX01 and PDX02). […] Following transplantation (n=6 per model) tumor growth was assessed by measuring tumor size in two dimension using a Vernier caliper. Tumor volume was calculated using the formula [3.14×long axis×short axis×short axis]/6 (Kjonniksen et al., 1989). […] Mice were weighted and the tumor size was measured by a caliper and recorded daily. Fourteen days after beginning of the treatment mice were sacrificed. The tumors, kidney, lungs, heart, liver, pancreas and spleen were taken and fixed. Paraffin-embedded sections were prepared and stained with hematoxylin and eosin for histological analysis.

Ac-RQIKIWFKKQNRRMKWKKAKLNAEKLKDFKIRLQYFARGLQVYIRQLRLALQGKT-NH2 [Antp-AAC-11-LZ (363-399)]
LDH release (A549 cells; 5 minutes, relative to maximal LDH release (0.8% Triton X-100)): ~40%
LDH release (A549 cells; 1 hour, compared to maximum LDH release (0.8% Triton X-100)): 80%
LDH release into cell supernatants, in words (A549 cells; time course): drastic increase
LDH release in nonmalignant cells (HaCat cells): little LDH release
mortality ([1]; 0.8-4.8 mg peptide/kg body weight): No mice died
body weight difference between groups ([1]; 0.8-4.8 mg peptide/kg body weight, FIG. 8A): no significant difference
toxicity to kidney, lungs, heart, liver, pancreas and spleen ([1]; 0.8-4.8 mg peptide/kg, end of experiment): no obvious toxicity
toxicity in normal cells [2]: much reduced toxicity
tumor size versus vehicle [3]: significantly smaller tumors
